{
  "source": "patent US20240101496A1",
  "about": "“SYNERGISTIC ACTION OF DCD AND ALKOXYPYRAZOLES AS NITRIFICATION INHIBITORS” (BASF SE, priority 2021, published 2024)",
  "key": {"[1]": {"tested_on": "nitrification in soil Limburgerhof", "assay": "Inhibition of nitrification in soil, Experiment 1 (incubation 28 days)", "protocol": "(§1) The mixtures of the invention were tested as follows in terms of the inhibition of nitrification:\n(§2) 100 g soil (soil Limburgerhof with pH(CaCl2) 6.8; 73% sand, 23% silt, 4% clay, which is classified according to FAO as a sandy loam) is filled into 500 ml plastic bottles and is moistened to 50% water holding capacity. The soil is incubated at 20° C. for two weeks prior to the experiments to activate the microbial biomass. 1 ml test solution, containing the components of the mixture in the appropriate concentration (usually from 0.1 to 3.13% (w/w) of fertilized NH4—N), and 10 mg nitrogen in the form of ammoniumsulfate-N(NH4—N) is added to the soil and everything mixed well. Unfertilized controls received 1 ml pure water. Bottles are capped but loosely to allow air exchange. The bottles are then incubated at 20° C. for 0 and 28 days in Experiment 1, and for 0 and 42 days in Experiment 2.\n(§3) For analysis, 300 ml of a 1% K2SO4-solution is added to the bottle containing the soil and shaken for 2 hours in a horizontal shaker at 150 rpm. Then the whole solution is filtered through a filter (Macherey-Nagel Filter MN 807 ¼). Ammonium and nitrate content is then analyzed in the filtrate using an autoanalyzer. Ammonium was quantified via an indophenol blue dye at 660 nm, and nitrate via an azo dye at 540 nm.\n(§4) The nitrification inhibition is expressed as % of NH4—N recovery from fertilized NH4—N(100%) after subtraction of unfertilized control soil, and as % inhibition of NO3—N formation (% reduction of NO3^− production) according to the formula:\n(§5) In every experiment three tests (n=3) regarding the inhibition of nitrification were performed in each case.\n(§6) The results were compared with the results calculated by Colby (Colby, S.R., Calculating synergistic and antagonistic responses of herbicide combinations, Weeds, 15, pp. 20-22, 1967) for an additive effect.\n(§7) Colby's formula:E=x+y−x·y/100 • E=expected efficacy, expressed in % of the untreated control, when using the mixture comprising the components (i) and (ii) at concentrations a and b; • x=efficacy, expressed in % of the untreated control, when using component (i) at the concentration a; • y=efficacy, expressed in % of the untreated control, when using component (ii) at the concentration b."}, "[2]": {"tested_on": "nitrification in soil Limburgerhof", "assay": "Inhibition of nitrification in soil, Experiment 2 (incubation 42 days)", "protocol": "as §1, §2, §3, §4, §5, §6, §7"}, "[3]": {"tested_on": "nitrification in soil Limburgerhof", "assay": "Inhibition of nitrification in soil, mixtures with R^1 is CH2CH3, tested analogously (50 g soil, 4 replicates, 28 and 42 days)", "details": "R^1 is CH2CH3 series", "protocol": "as §2, §3\nThe nitrification inhibition is expressed as % of NH4—N recovery from fertilized NH4—N(100%) after subtraction of unfertilized control soil, and as % inhibition of NO3—N formation (% reduction of NO3^− production) according to the formula: […]\nas §6, §7\nThe following mixtures were tested analogously using 50 g soil Limburgerhof as defined above and ammonium sulfate as fertilizer in an amount N of 10 mg NH4N/100 g soil (number of replicates: 4)"}, "[4]": {"details": "(i) 0.1, (ii) 0 wt.-% relative to NH4—N"}, "[5]": {"details": "(i) 0.2, (ii) 0 wt.-% relative to NH4—N"}, "[6]": {"details": "(i) 0.4, (ii) 0 wt.-% relative to NH4—N"}, "[7]": {"details": "(i) 0.8, (ii) 0 wt.-% relative to NH4—N"}, "[8]": {"details": "(i) 0.3, (ii) 0 wt.-% relative to NH4—N"}, "[9]": {"details": "(i) 0.9, (ii) 0 wt.-% relative to NH4—N"}, "[10]": {"details": "(i) 2.7, (ii) 0 wt.-% relative to NH4—N"}, "[11]": {"details": "(i) 0, (ii) 0.5 wt.-% relative to NH4—N"}, "[12]": {"details": "(i) 0, (ii) 1 wt.-% relative to NH4—N"}, "[13]": {"details": "(i) 0, (ii) 2 wt.-% relative to NH4—N"}, "[14]": {"details": "(i) 0, (ii) 0.2 wt.-% relative to NH4—N"}, "[15]": {"details": "(i) 0, (ii) 1.25 wt.-% relative to NH4—N"}, "[16]": {"details": "(i) 0, (ii) 3.13 wt.-% relative to NH4—N"}},
  "data": [
    {"smiles": "COc1cc(C)n[nH]1", "note": "[Component (i)]", "values": [
      {"measurement": "% Inhibition of NO3^− production after 28 days, Measured", "setting": "[1]; [4]", "result": 0.5, "unit": "%"},
      {"measurement": "% NH4—N recovery from fertilized NH4—N after 28 days, Measured", "setting": "[1]; [4]", "result": 0.7, "unit": "%"},
      {"measurement": "% Inhibition of NO3^− production after 28 days, Measured", "setting": "[1]; [5]", "result": 25.8, "unit": "%"},
      {"measurement": "% NH4—N recovery from fertilized NH4—N after 28 days, Measured", "setting": "[1]; [5]", "result": 17.2, "unit": "%"},
      {"measurement": "% Inhibition of NO3^− production after 28 days, Measured", "setting": "[1]; [6]", "result": 44.2, "unit": "%"},
      {"measurement": "% NH4—N recovery from fertilized NH4—N after 28 days, Measured", "setting": "[1]; [6]", "result": 41.8, "unit": "%"},
      {"measurement": "% Inhibition of NO3^− production after 28 days, Measured", "setting": "[1]; [7]", "result": 67.6, "unit": "%"},
      {"measurement": "% NH4—N recovery from fertilized NH4—N after 28 days, Measured", "setting": "[1]; [7]", "result": 62.6, "unit": "%"},
      {"measurement": "% Inhibition of NO3^− production after 42 days, Measured", "setting": "[2]; [4]", "result": 2.5, "unit": "%"},
      {"measurement": "% Inhibition of NO3^− production after 42 days, Measured", "setting": "[2]; [8]", "result": 12.2, "unit": "%"},
      {"measurement": "% NH4—N recovery from fertilized NH4—N after 42 days, Measured", "setting": "[2]; [8]", "result": 1.9, "unit": "%"},
      {"measurement": "% Inhibition of NO3^− production after 42 days, Measured", "setting": "[2]; [9]", "result": 42.1, "unit": "%"},
      {"measurement": "% NH4—N recovery from fertilized NH4—N after 42 days, Measured", "setting": "[2]; [9]", "result": 29.6, "unit": "%"},
      {"measurement": "% Inhibition of NO3^− production after 42 days, Measured", "setting": "[2]; [10]", "result": 83.8, "unit": "%"},
      {"measurement": "% NH4—N recovery from fertilized NH4—N after 42 days, Measured", "setting": "[2]; [10]", "result": 64.4, "unit": "%"}
    ]},
    {"smiles": "N#CN=C(N)N", "note": "[Component (ii), Dicyandiamide]", "values": [
      {"measurement": "% Inhibition of NO3^− production after 28 days, Measured", "setting": "[1]; (i) 0, (ii) 0.25 wt.-% relative to NH4—N", "result": "−1.2", "unit": "%"},
      {"measurement": "% Inhibition of NO3^− production after 28 days, Measured", "setting": "[1]; [11]", "result": 7.7, "unit": "%"},
      {"measurement": "% Inhibition of NO3^− production after 28 days, Measured", "setting": "[1]; [12]", "result": 3.5, "unit": "%"},
      {"measurement": "% NH4—N recovery from fertilized NH4—N after 28 days, Measured", "setting": "[1]; [12]", "result": 0.8, "unit": "%"},
      {"measurement": "% Inhibition of NO3^− production after 28 days, Measured", "setting": "[1]; [13]", "result": 16.3, "unit": "%"},
      {"measurement": "% NH4—N recovery from fertilized NH4—N after 28 days, Measured", "setting": "[1]; [13]", "result": 9.0, "unit": "%"},
      {"measurement": "% Inhibition of NO3^− production after 42 days, Measured", "setting": "[2]; [14]", "result": 9.2, "unit": "%"},
      {"measurement": "% NH4—N recovery from fertilized NH4—N after 42 days, Measured", "setting": "[2]; [14]", "result": 0, "unit": "%"},
      {"measurement": "% Inhibition of NO3^− production after 42 days, Measured", "setting": "[2]; [11]", "result": 10.4, "unit": "%"},
      {"measurement": "% Inhibition of NO3^− production after 42 days, Measured", "setting": "[2]; [15]", "result": 10.0, "unit": "%"},
      {"measurement": "% Inhibition of NO3^− production after 42 days, Measured", "setting": "[2]; [16]", "result": 15.4, "unit": "%"},
      {"measurement": "% Inhibition of NO3^− production after 28 days, Measured", "setting": "[3]; [15]", "result": 4.3, "unit": "%"},
      {"measurement": "% Inhibition of NO3^− production after 42 days, Measured", "setting": "[3]; [15]", "result": 4.0, "unit": "%"},
      {"measurement": "% NH4—N recovery from fertilized NH4—N after 28 days, Measured", "setting": "[3]; [15]", "result": 0.0, "unit": "%"},
      {"measurement": "% NH4—N recovery from fertilized NH4—N after 42 days, Measured", "setting": "[3]; [15]", "result": 0.0, "unit": "%"},
      {"measurement": "% Inhibition of NO3^− production after 28 days, Measured", "setting": "[3]; [16]", "result": 15.7, "unit": "%"},
      {"measurement": "% Inhibition of NO3^− production after 42 days, Measured", "setting": "[3]; [16]", "result": 4.0, "unit": "%"},
      {"measurement": "% NH4—N recovery from fertilized NH4—N after 28 days, Measured", "setting": "[3]; [16]", "result": 0.0, "unit": "%"},
      {"measurement": "% NH4—N recovery from fertilized NH4—N after 42 days, Measured", "setting": "[3]; [16]", "result": 0.0, "unit": "%"}
    ]}
  ]
}
